The target of one data set is ATPase. Conditions: read-out: Binding Constant; Inhibited Protein: ATPase; cited from earlier work.
The next data set addresses Calpain. Particulars: Inhibited Protein: Calpain; read-out: Binding Constant; cited from earlier work.
The next data set deals with galanin receptor. Put plainly: Radio immunoassay, displacement of radiolabeled galanin from its receptor. The format is binding. As for the experimental part: Radio immunoassays (RIAs) were performed to determine the ability of galanin and its APP derivatives to displace radiolabeled galanin from its receptor.
The subject of data set [1] is E. coli. The format is cell-based. Conditions: ALS225 cells, minimal inducing plate (M9 glycerol Amp IPTG), grid patching.
Data set [2] deals with E. coli. Put plainly: Growth rate analysis in liquid media of cells expressing induced peptides. The format is cell-based. Particulars: for % Inhibition (of the growth rate): ALS225, minimal media, 1 mM IPTG, versus induced pLAC11 vector, average of three determinations; for % inhibition versus pLAC11 control (inhibitory peptide): induced inhibitor; for % inhibition versus pLAC11 control (inhibitory peptide) / % inhibition versus pLAC11 control (antisense construct): growth rate; for % inhibition versus pLAC11 control (antisense construct): ATG start codon converted to ACG, induced.

In another data set the target is Nicotinic Acetylcholine. Particulars: read-out: Binding Constant; cited from earlier work.
For data set [3] the following is noted: Steif et al. 1993; cited from earlier work.

Where two headings read alike, the source gives them in different places. No end group written: not given here.

The values that follow come from patent US7365162B2, “Stabilized bioactive peptides and methods of identification, synthesis, and use” (priority 1998, dated 2008).

Usually Ki stands for a measure of affinity in units of concentration, obtained from inhibition or displacement.

For Myotoxin (29-42), the Kd on ATPase is 19 µM.
On to SCP (153-180), for which, on Calpain, the Kd is 30 nM.
On galanin receptor, “galanin with the APP (Ala-Pro-Pro) motif at the amino terminus [APP-galanin]” displayed a Ki of 6.42 nM.
Turning to “pPep5: 16 aa inhibitor peptide encoded by clone pPep5 (SEQ ID NO:36) (MWRDSWIKGRDVGFMG; stabilized peptide)”, the “Type (one day / two day inhibitor)” value with E. coli [1] is 1 Day (able to prevent the growth of the E. coli bacteria at 24 hours). In the data set on E. coli [2], the “% Inhibition (of the growth rate)” value is 24% and the “% inhibition versus pLAC11 control (inhibitory peptide)” value amounted to 23%.
With “pPep6: 42 aa inhibitor peptide (SEQ ID NO:39); last 25 aa could form a hydrophobic membrane-spanning domain (MSGGHVTRECKSAMSNRWIYVIRILMFDSLSSISFNAVVYHS; also: stabilized peptide)”, the “Type (one day / two day inhibitor)” value with E. coli [1] was 1 Day (able to prevent the growth of the E. coli bacteria at 24 hours). Further, in the data set on E. coli [2], the “% Inhibition (of the growth rate)” value is 27%.
For the molecule “pPep7: 6 aa inhibitor peptide (SEQ ID NO:40) (MYLFIG; stabilized peptide)”, in the data set with E. coli [1], the “Type (one day / two day inhibitor)” value is given as 1 Day (able to prevent the growth of the E. coli bacteria at 24 hours). Moreover, the “% Inhibition (of the growth rate)” value in the data set with E. coli [2] worked out at 26%.
On the same counts, the results for “pPep8: 21 aa inhibitor peptide (SEQ ID NO:43) (MLLFGGDCGKAGYFTVLPSR; stabilized peptide)” are 1 Day (able to prevent the growth of the E. coli bacteria at 24 hours) and 29%.
Take “pPep10: 20 aa inhibitor peptide (SEQ ID NO:45) (MIGGSLSFAWAIVCNKNSHV; stabilized peptide)”: the “Type (one day / two day inhibitor)” value in the data set with E. coli [1] is reported as 1 Day (able to prevent the growth of the E. coli bacteria at 24 hours). Besides, in the data set with E. coli [2], the “% Inhibition (of the growth rate)” value is given as 24%.
As to “pPep12: 14 aa two day inhibitor peptide (SEQ ID NO:46), two prolines near the C-terminus; printed pPep22 in Table 10 (MNGRTKRIRDPPAA; stabilized peptide)”, the “Type (one day / two day inhibitor)” value in the data set on E. coli [1] was “two day”. Besides, the “Type (one day / two day inhibitor)” value with E. coli [1] (listed as pPep22) is 2 Day (able to prevent the growth of the E. coli bacteria at 48 hours). In addition, in the data set with E. coli [2], the “% Inhibition (of the growth rate)” value came out at 82% and the “% inhibition versus pLAC11 control (inhibitory peptide)” value was determined as 80%.
“pPep13: 18 aa inhibitor peptide (SEQ ID NO:48), C-terminal proline (MDREVMCAAKQEWKERTP; stabilized peptide)”: the “Type (one day / two day inhibitor)” value in the data set with E. coli [1] was 1 Day (able to prevent the growth of the E. coli bacteria at 24 hours). In the data set on E. coli [2], the “% Inhibition (of the growth rate)” value is given as 28% and the “% inhibition versus pLAC11 control (inhibitory peptide)” value is 28%.
As for “pPep17: 12 aa inhibitor peptide (SEQ ID NO:51), C-terminal proline (MLGLEATYPFNP; stabilized peptide)”, the “Type (one day / two day inhibitor)” value with E. coli [1] is on record as 1 Day (able to prevent the growth of the E. coli bacteria at 24 hours). The “% Inhibition (of the growth rate)” value with E. coli [2] is recorded as 28%.
In the case of “pPep19: 5 aa inhibitor peptide (SEQ ID NO:52) (MRGAN; stabilized peptide)”, in the data set on E. coli [1], the “Type (one day / two day inhibitor)” value is 1 Day (able to prevent the growth of the E. coli bacteria at 24 hours). In the data set on E. coli [2], the “% Inhibition (of the growth rate)” value is on record as 29% and the “% inhibition versus pLAC11 control (inhibitory peptide)” value was found to be 29%.
Turning to α-Conotoxin GIA, on Nicotinic Acetylcholine, the Kd is 1 nM.

B1: pPep12-anti: pPep12 insert recloned in pLAC11 with ATG start codon changed to ACG (SEQ ID NO:31) (nucleic acid)
DNA: TACTATAGATCTACGAACGGCCGAACCAAACGAATCCGGGACCCACCAGCCGCCTAAACAGCTACCAGCTGTGGTAATAAGAATTCTCGACA
modifications: expressed or natural sequence
As to B1, the “% inhibition versus pLAC11 control (antisense construct)” value in the data set on E. coli [2] is 0%.

B2: pPep19-anti: pPep19 insert recloned in pLAC11 with ATG start codon changed to ACG (SEQ ID NO:33) (nucleic acid)
DNA: TACTATAGATCTACGAGGGGCGCCAACTAAGGGGGGGGGAAGGTATTTGTCCCGTGCATAATCTCGGGTGTTGTCTAATAAGAATTCTCGACA
modifications: expressed or natural sequence
B2: the “% inhibition versus pLAC11 control (antisense construct)” value in the data set with E. coli [2] is reported as 0%.

B3: pPep13-anti: pPep13 insert recloned in pLAC11 with ATG start codon changed to ACG (SEQ ID NO:32) (nucleic acid)
DNA: TACTATAGATCTACGGACCGTGAAGTGATGTGTGCGGCAAAACAGGAATGGAAGGAACGAACGCCATAGGCCGCGTAATAAGAATTCTCGACA
modifications: expressed or natural sequence
On to B3, for which, in the data set on E. coli [2], the “% inhibition versus pLAC11 control (antisense construct)” value is 0%.

B4: pPep5-anti: pPep5 insert recloned in pLAC11 with ATG start codon changed to ACG (SEQ ID NO:30) (nucleic acid)
DNA: TACTATAGATCTACGTGGCGGGACTCATGGATTAAGGGTAGGGACGTGGGGTTTATGGGTTAAAATAGTTTGATAATAAGAATTCTCGACA
modifications: expressed or natural sequence
Turning to B4, the “% inhibition versus pLAC11 control (antisense construct)” value with E. coli [2] is reported as 0%.

B5: Rop: small 63 amino acid four-helix bundle protein from the ColEl replicon, used as stabilizing group (protein, UniProt P03051 1-63, looked up)
Regulatory protein rop: MTKQEKTALNMARFIRSQTLTLLEKLNELDADEQADICESLHDHADELYRSCLARFGDDGENL
B5: in data set [3], the “midpoint temperature of denaturation, Tm” value is “about 71 °C”.

B6: pPep1-anti: pPep1 insert recloned in pLAC11 with ATG start codon changed to ACG (SEQ ID NO:29) (nucleic acid)
DNA: TACTATAGATCTACGGTCACTGAATTTTGTGGCTTGTTGGACCAACTGCCTTAGTAATAGTGGAAGGCTGAAATTAATAAGAATTCTCGACA
modifications: expressed or natural sequence
For B6, the “% inhibition versus pLAC11 control (antisense construct)” value in the data set on E. coli [2] worked out at 0%.
